Measured values taken from ChEMBL document CHEMBL3860095, “1H-1,2,3-Triazolyl-substituted 1,3,4-oxadiazole derivatives containing structural features of ibuprofen/naproxen: Their synthesis and antibacterial evaluation” (2016).

Legend:
Type in all cases: functional
Conditions in all cases: read-out: DIZ
[1] = system: Staphylococcus epidermidis; experiment: Antibacterial activity against clinical isolates of Staphylococcus epidermidis at 0.5 mg after overnight incubation by agar well diffusion method
[2] = system: Bacillus subtilis; experiment: Antibacterial activity against clinical isolates of Bacillus subtilis at 0.5 mg after overnight incubation by agar well diffusion method
[3] = system: Pseudomonas aeruginosa; experiment: Antibacterial activity against clinical isolates of Pseudomonas aeruginosa at 0.5 mg after overnight incubation by agar well diffusion method
[4] = system: Escherichia coli; experiment: Antibacterial activity against clinical isolates of Escherichia coli at 0.5 mg after overnight incubation by agar well diffusion method
[5] = system: Klebsiella pneumoniae; experiment: Antibacterial activity against clinical isolates of Klebsiella pneumoniae at 0.5 mg after overnight incubation by agar well diffusion method
[6] = system: Staphylococcus aureus; experiment: Antibacterial activity against clinical isolates of Staphylococcus aureus at 0.5 mg after overnight incubation by agar well diffusion method
[7] = system: Pseudomonas aeruginosa; experiment: Antibacterial activity against clinical isolates of Pseudomonas aeruginosa at 0.05 mg after overnight incubation by agar well diffusion method
[8] = system: Klebsiella pneumoniae; experiment: Antibacterial activity against clinical isolates of Klebsiella pneumoniae at 0.05 mg after overnight incubation by agar well diffusion method
[9] = system: Staphylococcus aureus; experiment: Antibacterial activity against clinical isolates of Staphylococcus aureus at 0.05 mg after overnight incubation by agar well diffusion method
[10] = system: Escherichia coli; experiment: Antibacterial activity against clinical isolates of Escherichia coli at 0.05 mg after overnight incubation by agar well diffusion method

**Q.** How did the zone of inhibition at 500 µg/disc [1] turn out when `Cc1ccccc1NC(=O)Cn1cc(CSc2nnc(C(C)c3ccc(CC(C)C)cc3)o2)nn1` (racemic) was run?
**A.** 13 mm

**Q.** And the zone of inhibition at 500 µg/disc [2]?
**A.** 11 mm

**Q.** And the zone of inhibition at 500 µg/disc [3]?
**A.** 14 mm

**Q.** And the zone of inhibition at 500 µg/disc [4]?
**A.** 13 mm

**Q.** What about the zone of inhibition at 500 µg/disc [5] of the same molecule?
**A.** 13 mm

**Q.** And the zone of inhibition at 500 µg/disc [6]?
**A.** 13 mm

**Q.** With `COc1ccc2cc([C@H](C)c3nnc(SCc4cn(CC(=O)Nc5ccccc5C)nn4)o3)ccc2c1` as the molecule, how does the zone of inhibition at 500 µg/disc [1] read?
**A.** 15 mm

**Q.** And the zone of inhibition at 500 µg/disc [2]?
**A.** 12 mm

**Q.** What about the zone of inhibition at 500 µg/disc [3] of the same molecule?
**A.** 14 mm

**Q.** What about the zone of inhibition at 500 µg/disc [4] of the same molecule?
**A.** 10 mm

**Q.** What about the zone of inhibition at 500 µg/disc [5] of the same molecule?
**A.** 13 mm

**Q.** And the zone of inhibition at 500 µg/disc [6]?
**A.** 13 mm

**Q.** How did the zone of inhibition at 500 µg/disc [1] turn out when `COc1ccc2cc([C@H](C)c3nnc(SCc4cn(CC(=O)Nc5c(C)cccc5C)nn4)o3)ccc2c1` was run?
**A.** 12 mm

**Q.** And the zone of inhibition at 500 µg/disc [2]?
**A.** 15 mm

**Q.** And the zone of inhibition at 500 µg/disc [3]?
**A.** 11 mm

**Q.** What about the zone of inhibition at 500 µg/disc [4] of the same molecule?
**A.** 11 mm

**Q.** What about the zone of inhibition at 500 µg/disc [5] of the same molecule?
**A.** 9 mm

**Q.** What about the zone of inhibition at 500 µg/disc [6] of the same molecule?
**A.** 13 mm

**Q.** How did the zone of inhibition at 500 µg/disc [1] turn out when `CC(C)Cc1ccc(C(C)c2nnc(SCc3cn(CC(=O)Nc4cccc(Cl)c4)nn3)o2)cc1` (racemic) was run?
**A.** 13 mm

**Q.** And the zone of inhibition at 500 µg/disc [2]?
**A.** 12 mm

**Q.** And the zone of inhibition at 500 µg/disc [3]?
**A.** 15 mm

**Q.** And the zone of inhibition at 500 µg/disc [4]?
**A.** 12 mm

**Q.** What about the zone of inhibition at 500 µg/disc [5] of the same molecule?
**A.** 11 mm

**Q.** What about the zone of inhibition at 500 µg/disc [6] of the same molecule?
**A.** 14 mm

**Q.** Which zone of inhibition at 500 µg/disc [1] does the source give for `CC(C)Cc1ccc(C(C)c2nnc(SCc3cn(-c4ccccc4)nn3)o2)cc1` (racemic) here?
**A.** 9 mm

**Q.** What about the zone of inhibition at 500 µg/disc [2] of the same molecule?
**A.** 11 mm

**Q.** What about the zone of inhibition at 500 µg/disc [3] of the same molecule?
**A.** 11 mm

**Q.** What about the zone of inhibition at 500 µg/disc [4] of the same molecule?
**A.** 10 mm

**Q.** And the zone of inhibition at 500 µg/disc [5]?
**A.** 10 mm

**Q.** And the zone of inhibition at 500 µg/disc [6]?
**A.** 10 mm

**Q.** What does the source list for `CC(C)Cc1ccc(C(C)c2nnc(SCc3cn(CC(=O)Nc4ccc(Cl)cc4)nn3)o2)cc1` (racemic)?
**A.** zone of inhibition at 500 µg/disc [1]: 15 mm; zone of inhibition at 500 µg/disc [2]: 16 mm; zone of inhibition at 500 µg/disc [3]: 14 mm; zone of inhibition at 500 µg/disc [4]: 15 mm; zone of inhibition at 500 µg/disc [5]: 15 mm; zone of inhibition at 500 µg/disc [6]: 11 mm

**Q.** For `CC(C)Cc1ccc(C(C)c2nnc(SCc3cn(CC(=O)Nc4ccccc4[N+](=O)[O-])nn3)o2)cc1` (racemic), which zone of inhibition at 500 µg/disc [1] is on record?
**A.** 10 mm

**Q.** What about the zone of inhibition at 500 µg/disc [2] of the same molecule?
**A.** 10 mm

**Q.** What about the zone of inhibition at 500 µg/disc [3] of the same molecule?
**A.** 9 mm

**Q.** What about the zone of inhibition at 500 µg/disc [4] of the same molecule?
**A.** 11 mm

**Q.** What about the zone of inhibition at 500 µg/disc [5] of the same molecule?
**A.** 9 mm

**Q.** What about the zone of inhibition at 500 µg/disc [6] of the same molecule?
**A.** 11 mm

**Q.** Which zone of inhibition at 500 µg/disc [1] does the source give for `COc1ccc2cc([C@H](C)c3nnc(SCc4cn(CC(=O)Nc5ccccc5Cl)nn4)o3)ccc2c1` here?
**A.** 16 mm

**Q.** What about the zone of inhibition at 500 µg/disc [2] of the same molecule?
**A.** 15 mm

**Q.** What about the zone of inhibition at 500 µg/disc [3] of the same molecule?
**A.** 14 mm

**Q.** What about the zone of inhibition at 500 µg/disc [4] of the same molecule?
**A.** 13 mm

**Q.** And the zone of inhibition at 500 µg/disc [5]?
**A.** 14 mm

**Q.** And the zone of inhibition at 500 µg/disc [6]?
**A.** 15 mm

**Q.** For `NCC[C@H](O)C(=O)N[C@@H]1C[C@H](N)[C@@H](O[C@H]2O[C@H](CN)[C@@H](O)[C@H](O)[C@H]2O)[C@H](O)[C@H]1O[C@H]1O[C@H](CO)[C@@H](O)[C@H](N)[C@H]1O` [AMIKACIN], which zone of inhibition at 50 µg/disc [7] is on record?
**A.** 22 mm

**Q.** And the zone of inhibition at 50 µg/disc [8]?
**A.** 23 mm

**Q.** What about the zone of inhibition at 50 µg/disc [9] of the same molecule?
**A.** 23 mm

**Q.** And the zone of inhibition at 50 µg/disc [10]?
**A.** 20 mm

**Q.** Which zone of inhibition at 500 µg/disc [1] does the source give for `COc1ccc2cc([C@H](C)c3nnc(SCc4cn(CC(=O)Nc5cccc(Cl)c5)nn4)o3)ccc2c1` here?
**A.** 11 mm

**Q.** And the zone of inhibition at 500 µg/disc [2]?
**A.** 14 mm

**Q.** And the zone of inhibition at 500 µg/disc [3]?
**A.** 13 mm

**Q.** What about the zone of inhibition at 500 µg/disc [4] of the same molecule?
**A.** 12 mm

**Q.** And the zone of inhibition at 500 µg/disc [5]?
**A.** 10 mm

**Q.** And the zone of inhibition at 500 µg/disc [6]?
**A.** 12 mm

**Q.** How did the zone of inhibition at 500 µg/disc [1] turn out when `COc1ccc2cc([C@H](C)c3nnc(SCc4cn(-c5ccccc5)nn4)o3)ccc2c1` was run?
**A.** 15 mm

**Q.** And the zone of inhibition at 500 µg/disc [2]?
**A.** 14 mm

**Q.** What about the zone of inhibition at 500 µg/disc [3] of the same molecule?
**A.** 12 mm

**Q.** What about the zone of inhibition at 500 µg/disc [4] of the same molecule?
**A.** 13 mm

**Q.** And the zone of inhibition at 500 µg/disc [5]?
**A.** 12 mm

**Q.** And the zone of inhibition at 500 µg/disc [6]?
**A.** 14 mm
